Results on 2 compounds are retold here after patent EP2535049A1 (Proyecto de Biomedicina Cima, S.L., priority 2011, dated 2012).

One data set deals with GluR2/3. Briefly: Western blot of GluR2/3 in hippocampus of J20 mice. The class given is in vivo. The following applies: J20 mice treated for 10 weeks. How it is done: (§1) Results were compared with those obtained from age-matched negative littermates (controls). To test the effect of the PDE5 inhibitors in cognition capacity related to aging, a second treatment was carried out using 10-12 month-old non-transgenic (wild type) mice on an inbred C57/B6xSJL genetic background.
(§2) Twenty four hours after the fear conditioning test, animals (n=5, per group) were sacrificed and the brains removed for biochemical studies. The cortex and hippocampus were dissected, homogenized, and processed as described below for subsequent western blot analysis. […]
(§3) Total tissue homogenates were obtained by homogenizing the hippocampus in a cold lysis buffer with protease inhibitors (0.2 M NaCl, 0.1 M HEPES, 10% glycerol, 200 mM NaF, 2 mM Na4P2O7, 5 mM EDTA, 1 mM EGTA, 2 mM DTT, 0.5 mM PMSF, 1 mM Na3VO4, 1 mM benzamidine, 10 µg/ml leupeptin, 400 U/ml aprotinin), centrifuged at 14,000 x g 4 °C for 20 minutes and the supernatant was aliquoted and stored at -80 °C. Total protein concentrations were determined using the BioRad Bradford protein assay (BioRad Laboratories).
(§4) Protein samples were mixed with an equal volume of 2 x Laemmli sample buffer, resolved onto SDS-polyacrylamide gels and transferred to nitrocellulose membrane. […] Quantity OneTM software v.4.6.3 (Bio-Rad) was used for quantification.
Background: In western blotting, separated proteins are transferred to a membrane and probed.

For data set [1], the system named is aged wild type animals (C57/b6xSJL). Nature of the data set: Fear conditioning test in aged wild type animals. The class given is in vivo, mice. The settings on record: 5-weeks treatment, 15 mg/Kg orally, aged (12-14-month-old) wild type animals, 24h and 7 days after training, vs saline. How it is done:
Results were compared with those obtained from age-matched negative littermates (controls). […] After running the MWM, all the animals were trained in the fear conditioning test. The conditioning procedure was carried out in a StartFear system (Panlab S.L.) that allows recording and analysis of the signal generated by the animal movement through a high sensitivity Weight Transducer system. The analogical signal is transmitted to the FREEZING and […] software modules through the load cell unit for recording purposes and posterior analysis in terms of activity/immobility. The conditioning box is housed inside a soundproof chamber, which minimized external stimulation during the conditioning and retention tests. The box was provided with a house light that supplied dim illumination and with a floor grid through which foot shocks could be administered. On training day, the mice were placed in the conditioning chamber for 2 minutes before the onset of a tone at 2800 Hz, 85 dB (conditioned stimulus, CS), which lasted for 30 seconds. The last 2 seconds of the CS was paired with a 0.3 mA foot shock (unconditioned stimulus, US). Thirty seconds after the paired CS-US, mice were returned to their cage. […] Freezing behavior was defined as the lack of movement except for breathing for at least 2 seconds, and was analyzed to give the percentage time freezing during exposure to the chamber. […]

A further data set relates to PSD95. Briefly: Western blot of PSD95 in hippocampus of J20 mice. The data set is classed as in vivo. The settings on record: J20 mice treated for 10 weeks. How it is done:
as §1, §2, §3, §4

The subject of a further data set is pGSK3β-Ser9. Nature of the data set: Western blot of pGSK3β-Ser9 in hippocampus of J20 mice. The data set is classed as in vivo. The settings on record: J20 mice treated for 10 weeks, vs saline. How it is done:
as §1, §2, §3, §4

Another data set relates to AD mouse models. The following applies: Puzzo et al., 2009; cited from earlier work.
The conditions of data set [2]: Kulkarni and Patil 2004; Forgue et al., 2006; cited from earlier work.
In the next data set the test system is synaptophysin. Briefly: Western blot of synaptophysin in hippocampus of J20 mice. The data set is classed as in vivo. The following applies: J20 mice treated for 10 weeks. The method, then: as §1, §2, §3, §4
The test system of the next data set is pTau. Briefly: Western blot of pTau in hippocampus of J20 mice. The data set is classed as in vivo. The following applies: J20 mice (22-month-old) treated for 10 weeks, normalized to total Tau. The method, then: as §1
Twenty four hours after the fear conditioning test, animals (n=5, per group) were sacrificed and the brains removed for biochemical studies. The cortex and hippocampus were dissected, homogenized, and processed as described below for subsequent western blot analysis. Under xylazine/ketamine anesthesia, animals (n=4 per group) were perfused transcardially with saline and 4% paraformaldehyde in phosphate buffer (PB). After perfusion, brains were removed, post-fixed in the same fixative solution for 1 h at room temperature and cryoprotected in 30% sucrose solution in PB overnight at 4 °C. Microtome sections ([…]) were cut coronally, collected free-floating and stored in 30% ethylene glycol, 30% glycerol, and 0.1M PB at - 20 °C until processed.
as §3
Protein samples were mixed with an equal volume of 2 x Laemmli sample buffer, resolved onto SDS-polyacrylamide gels and transferred to nitrocellulose membrane. […] Following two washes in PBS/Tween-20 or TBS/Tween-20 and one PBS or TBS alone, immunolabeled protein bands were detected by using HRP-conjugated anti-rabbit or anti-mouse antibody (Santa Cruz; dilution 1:5000) following an enhanced chemiluminescence system (ECL, GE Healthcare Bioscience, Buckinghamshire, UK), and autoradiographic exposure to Hyperfilm™ECL (GE Healthcare Bioscience). Quantity OneTM software v.4.6.3 (Bio-Rad) was used for quantification.

Entries after “also recorded” stand apart in the source; their conditions may differ.

`CN1CC(=O)N2[C@H](c3ccc4c(c3)OCO4)c3[nH]c4ccccc4c3C[C@@H]2C1=O` [tadalafil, (6R-trans)-6-(1,3-benzodioxol-5-yl)-2,3,6,7,12,12a-hexahydro-2-methyl-pyrazino [1',2':1,6] pyrido [3,4-b]indole-1,4-dione]: in the data set with GluR2/3, the “expression levels of GluR2/3” value is reported as “recovered the low expression levels”. For the same compound, the “learning ability and memory retention in the FC test” value in data set [1] is “significant enhancement of memory; also recorded: improved learning ability and memory retention”. In the data set with PSD95, the “expression levels of PSD95” value is given as “recovered the low expression levels”. Further, in the data set on pGSK3β-Ser9, the pGSK3β-Ser9 levels result is “significantly increased; also recorded: being higher the effect of tadalafil”. Besides, the “effect on memory in AD mouse models” value in the data set with AD mouse models is recorded as “no effect was demonstrated”. In data set [2], the “half-life in blood serum” value was 18 h. The “expression levels of synaptophysin” value with synaptophysin was “recovered the low expression levels”. Further, in the data set on pTau, the “pTau levels (AT8) by Western blotting” value is “decrease in Tau pathology” and the “pTau levels (PHF1) by Western blotting” value is given as “more marked in tadalafil-treated mice”. In addition, the “pTau levels (AT8) by Western blotting” value in the data set with pTau (listed as Tadalafil) is given as “even more effective than sildenafil”.

Turning to `CCCc1nn(C)c2c(=O)[nH]c(-c3cc(S(=O)(=O)N4CCN(C)CC4)ccc3OCC)nc12` [sildenafil], the “expression levels of GluR2/3” value in the data set with GluR2/3 is listed as “recovered the low expression levels”. Besides, the “learning ability and memory retention in the FC test” value in data set [1] was “significant enhancement of memory; also recorded: only observed in the FC test (24h after training)”. For the same compound, the “expression levels of PSD95” value in the data set on PSD95 is recorded as “recovered the low expression levels”. The pGSK3β-Ser9 levels entry in the data set on pGSK3β-Ser9 was “significantly increased”. The “effect on memory in AD mouse models” value in the data set on AD mouse models is “efficacious drug in improving memory”. Also, the “half-life in blood serum” value in data set [2] is 3.4 h. In the data set on synaptophysin, the “expression levels of synaptophysin” value is “recovered the low expression levels”. Moreover, in the data set with pTau, the “pTau levels (AT8) by Western blotting” value was “decrease in Tau pathology”.
